One data set in a line: in vitro. To be noted: PAMPA, pH 7.4. The method, then:
The reference compounds, well-permeable caffeine and low-permeable norfloxacin were obtained from Sigma-Aldrich (St. Louis, MO, USA). Used for this study, pre-coated PAMPA Plate System Gentest™ was provided by Corning (Tewksbury, MA, USA). The system consisted of 96-well receiver filter plate pre-coated with structured layers of phospholipids and a donor microplate. The assay was performed as described previously. […] After 5 h of incubation at RT° the UPLC-MS spectrometry (Waters ACQUITY™ TQD system with the TQ Detector, Waters, Milford, MA, USA) method was used to estimate the quantity of compounds that penetrated from donor to acceptor wells. The permeability coefficients (Pe, cm/s) were calculated using the formulas provided by Corning.
A general note: In PAMPA a lipid-coated filter parts donor from acceptor wells.

A further data set deals with female Wistar rats. Description: Visceral illness via kaolin intake (pica behavior). It counts as in vivo. To be noted: single i.p., 24 h; vs vehicle control. The method, then:
The method was based on the works by Takeda et al. and Yamamoto et al. with minor modification. The experiment lasted for five days. In addition to free access to feed, animals had also free access to a white kaolin. For the first few days, the animals were accustomed to the presence of kaolin in their cages. […] Moreover, animals were weighed before the compounds administration and 24 h after.

A further data set concerns rat. To be noted: i.p., no reference given; cited from earlier work.
A further data set deals with laboratory animals. Details: method as in PMID 33261900. As to conditions: laboratory animals ref 12; cited from earlier work.
The subject of another data set is mice fed high fat diet. On the set-up: method as in PMID 15833055, PMID 15447739. To be noted: mice fed high fat diet ref 4, 16; cited from earlier work.

Turning to `Cn1c(=O)c2c(ncn2C)n(C)c1=O` [CFN, caffeine], the Papp at 5 h, 200 µM in “in vitro” was found to be 12.2 ± 0.94 ×10⁻⁶ cm/s.
As to `O=S(=O)([O-])[O-].[Cu+2]` [CuSO4, reference compound], in the data set with female Wistar rats, the “calorie intake (pica model)” value is given as “reduced caloric intake” and the “water intake (pica model)” value was “drank less water”. For the same compound, the LD50 with rat is 18 mg/kg.
`CCn1cc(C(=O)O)c(=O)c2cc(F)c(N3CCNCC3)cc21` [NFX, norfloxacin] registered an apparent permeability coefficient (Papp) at 5 h, 200 µM in “in vitro” of 0.056 ± 0.01 ×10⁻⁶ cm/s.
As for `N#Cc1ccc(-c2ccc(OCCCN3CCN(c4ccncc4)CC3)cc2)cc1` [KSK-94], in the data set with laboratory animals, the kcal intake result is “reduced kcal intake”; the “plasma triglyceride and total cholesterol levels” value was “lowering plasma triglyceride and total cholesterol levels”; the weight gain entry is “strongly prevented weight gain”.
For the compound `CN(C)[C@@H]1CCN(CCCOc2ccc(-c3ccc(C#N)cc3)cc2)C1` [Compound A-331440], in the data set on mice fed high fat diet, the body weight entry is “caused weight loss”, the insulin tolerance result is reported as “normalized insulin tolerance” and the leptin levels result was “lowered leptin levels”.

A word on the Papp: it is a coefficient for how fast a substance crosses the barrier. For orientation: LD50 means the dose at which mortality reaches 50%.

The record behind these values is publication PMC8622623, “Histamine H3 Receptor Ligands—KSK-59 and KSK-73—Reduce Body Weight Gain in a Rat Model of Excessive Eating” (Pharmaceuticals, 2021).
